The values that follow are results of earlier work, collected in US20060198830A1, “Ubiquinone composition and a container for its convenient transport and storage” (priority 2005, published 2006).

The conditions of the data set: administration of 300-1200 mg/day of CoQ10.

Take `COC1=C(OC)C(=O)C(C/C=C(\C)CC/C=C(\C)CC/C=C(\C)CC/C=C(\C)CC/C=C(\C)CC/C=C(\C)CC/C=C(\C)CC/C=C(\C)CC/C=C(\C)CCC=C(C)C)=C(C)C1=O` [CoQ10, Ubiquinone]: the “plasma CoQ10 concentrations” value is 3 to 4 µg/mL.
